# Literature values in US10874753B2, “Radiopharmaceutical conjugate of a metabolite and an EPR agent, for targeting tumour cells” (The South African Nuclear Energy Corporation Limited, priority 2014, dated 2020).
# Legend:
# [1] = binding of Ga by N4O2 chelator
# folate receptors (FR) = settings: binding to surface folate receptors (FR)
stability constant [1],Kd (folate receptors (FR)) [nM],Compound
28.1,,"O=C(O)c1cccc(CNCCNCc2cccc(C(=O)O)n2)n1 [Cyclam H2dedpa, (1,2-bis{[[6-(carboxy)pyridine-2-yl]methyl]-amino}-ethane)]"
,~1,Nc1nc(=O)c2nc(CNc3ccc(C(=O)N[C@@H](CCC(=O)O)C(=O)O)cc3)cnc2[nH]1 [Folate]
